From US10519133B2, “Vinyl compounds as FGFR and VEGFR inhibitors” (MEDSHINE DISCOVERY INC., priority 2015, dated 2019)

Target: T1, FGFR1 (Homo sapiens, UniProt P11362)
T1 construct: purchased Invitrogen PV4105
Test: Z′-LYTE Detection Kinase Assay, in vitro enzymatic activity
Format: biochemical
Settings: 0.6 nM FGFR1, 2 uM Tyr4 peptide, 10 uM ATP, 60 min 23° C.
Experimental: To measure enzyme activity by Z′-LYTE™ Detection Kinase Assay, and to evaluate the inhibitory effect of the compounds on FGFR1 using IC50 value of the compounds as an indicator. […]
Reaction Buffer: 50 mM Hepes (pH 7.5), 10 mM MgCl2, 1 mM EGTA, 0.01% Brij-35, 1 mM DTT, 2 mM MnCl2 0.6 nM FGFR1, 2 uM Tyr4 peptide and 10 uM ATP in reaction buffer (50 mM Hepes, pH 7.5, 10 mM MgCl2, 0.01% BRIJ-35, 1 mM EGTA, 4 mM MnCl2, 2 mM DTT). a. Diluting the compounds with DMSO to 10 mM, 3-fold dilution, 11 gradients, duplicate wells. b. Diluting the compound by 1:25 into middle plate at Bravo Automatic Liquid Station, then transferring 2.5 ul to the reaction plate to ensure the final DMSO concentration to be 1%. c. Transferring 5 ul of enzyme/substrate buffer into each well d. Using Multidrop Liquid Workstation to sequentially add ATP solution to each well e. Centrifuging at 1000 rpm for 1 minute f. Placing the reaction plate in an incubator at 23° C. to react for 60 min. a. Preparing a 1:128 mixture of Development Regent B and Development Buffer b. Adding 5 ul to each well and centrifuging at 1000 rpm for 1 minute c. Placing the reaction plate in a thermostat (23° C.) after centrifuging for 90 minutes, removing and reading on Envision (Perkin Elmer) Plate Reader
D. Analyzing Data: Analyzing Data Using XLFIT (IDBS) and Calculating IC50 Values for the Compounds.

T1 sequence (P11362 22-822): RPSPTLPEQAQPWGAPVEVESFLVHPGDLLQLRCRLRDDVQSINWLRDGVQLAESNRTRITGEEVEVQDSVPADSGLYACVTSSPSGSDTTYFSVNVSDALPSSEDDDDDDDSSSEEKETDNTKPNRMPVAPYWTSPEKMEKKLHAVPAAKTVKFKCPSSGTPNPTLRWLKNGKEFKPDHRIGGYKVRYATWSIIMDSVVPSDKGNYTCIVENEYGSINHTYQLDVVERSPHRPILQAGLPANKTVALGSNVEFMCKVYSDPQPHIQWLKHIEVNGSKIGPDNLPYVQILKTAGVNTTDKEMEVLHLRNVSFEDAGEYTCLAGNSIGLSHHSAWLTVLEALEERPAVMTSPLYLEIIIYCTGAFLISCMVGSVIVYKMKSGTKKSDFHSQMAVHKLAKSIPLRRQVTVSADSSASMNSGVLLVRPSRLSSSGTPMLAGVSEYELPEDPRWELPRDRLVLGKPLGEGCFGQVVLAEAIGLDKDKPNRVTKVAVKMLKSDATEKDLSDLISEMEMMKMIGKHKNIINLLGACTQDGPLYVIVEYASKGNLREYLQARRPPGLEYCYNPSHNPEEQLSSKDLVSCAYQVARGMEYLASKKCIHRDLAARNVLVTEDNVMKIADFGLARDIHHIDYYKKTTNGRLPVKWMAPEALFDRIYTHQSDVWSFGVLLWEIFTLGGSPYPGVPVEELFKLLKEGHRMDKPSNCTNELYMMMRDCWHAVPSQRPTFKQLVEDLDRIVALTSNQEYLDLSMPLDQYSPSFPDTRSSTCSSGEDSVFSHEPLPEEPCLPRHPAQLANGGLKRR

| IC50 | Structure (SMILES) |
| --- | --- |
| 50 to 1000 nM | C[C@@H](Oc1ccc2[nH]nc(/C(F)=C\c3ccc(CN4CCOCC4)nc3)c2c1)c1c(Cl)cncc1Cl [Example 2] |
| 50 to 1000 nM | C[C@H](Oc1ccc2[nH]nc(/C(F)=C\c3ccc(CN4CCOCC4)nc3)c2c1)c1c(Cl)cncc1Cl [Example 3] |
| 50 to 1000 nM | C[C@H](Oc1ccc2[nH]nc(/C(O)=C/c3ccc(CN4CCOCC4)nc3)c2c1)c1c(Cl)cncc1Cl [Example 6] |
| 50 to 1000 nM | CC(Oc1ccc2[nH]nc(/C(F)=C/c3ccc(CNCCN4CCOCC4)nc3)c2c1)c1c(Cl)cncc1Cl (stereo not drawn) [Example 11] |
| 50 to 1000 nM | CC(Oc1ccc2[nH]nc(/C(F)=C/c3ccc(CN4CCOCC4)nn3)c2c1)c1c(Cl)cncc1Cl (stereo not drawn) [Example 13] |
| ≤ 10 nM | CCN(Cc1ccc(/C(F)=C/c2n[nH]c3ccc(O[C@H](C)c4c(Cl)cncc4Cl)cc23)cn1)C1CCOCC1 [Example 18b] |
| 10 to 50 nM | C[C@@H](Oc1ccc2[nH]nc(/C=C(\F)c3ccc(CN[C@H]4C[C@H](O)C4)nc3)c2c1)c1c(Cl)cncc1Cl [Example 26] |
| 50 to 1000 nM | C[C@@H](Oc1ccc2[nH]nc(/C=C(\F)c3ccc(OC4CCOCC4)nc3)c2c1)c1c(Cl)cncc1Cl [Example 36] |
| ≤ 10 nM | CC(Oc1ccc2[nH]nc(/C=C/c3ccc(CN4CCOCC4)nc3)c2c1)c1c(Cl)cncc1Cl (stereo not drawn) [Example 48] |
| 50 to 1000 nM | CC(Oc1ccc2[nH]nc(/C=C/c3ccc(CN4CCOCC4)cc3Cl)c2c1)c1c(Cl)cncc1Cl (stereo not drawn) [Example 55] |
| 50 to 1000 nM | CC(Oc1ccc2[nH]nc(/C=C/c3ccc(CN4CCOCC4)c4ccccc34)c2c1)c1c(Cl)cncc1Cl (stereo not drawn) [Example 56] |
| 50 to 1000 nM | CC(Oc1ccc2[nH]nc(/C=C/c3ccc(CN4CCOCC4)c(C(F)(F)F)c3)c2c1)c1c(Cl)cncc1Cl (stereo not drawn) [Example 64] |
| ≤ 10 nM | [2H]C([2H])(c1ccc(/C=C/c2n[nH]c3ccc(OC(C)c4c(Cl)cncc4Cl)cc23)nn1)N1CCOCC1 (stereo not drawn) [Example 65] |
| ≤ 10 nM | CC(Oc1ccc2[nH]nc(/C=C/c3ccc(CN4CCOCC4)nn3)c2c1)c1c(Cl)cncc1Cl (stereo not drawn) [Example 66] |
| ≤ 10 nM | CC(Oc1ccc2[nH]nc(/C=C/c3ccc(CN4CCC(O)CC4)cc3)c2c1)c1c(Cl)cncc1Cl (stereo not drawn) [Example 72] |
| 50 to 1000 nM | CC(Oc1ccc2[nH]nc(/C=C/c3ccc(CN4CCc5ccccc5C4)cc3)c2c1)c1c(Cl)cncc1Cl (stereo not drawn) [Example 80] |
| ≤ 10 nM | CC(Oc1ccc2[nH]nc(/C=C/c3ccc(CN4CCCCC4)cc3)c2c1)c1c(Cl)cncc1Cl (stereo not drawn) [Example 81] |
| 50 to 1000 nM | CC(Oc1ccc2[nH]nc(/C=C/c3ccc(CN4CCC(c5ccccc5)CC4)cc3)c2c1)c1c(Cl)cncc1Cl (stereo not drawn) [Example 82] |
| 50 to 1000 nM | CC(Oc1ccc2[nH]nc(/C=C/c3ccc(CN4CCN(c5ccccc5)CC4)cc3)c2c1)c1c(Cl)cncc1Cl (stereo not drawn) [Example 83] |
| 10 to 50 nM | CC(Oc1ccc2[nH]nc(/C=C/c3ccc(CN4CCOC(CO)C4)cc3)c2c1)c1c(Cl)cncc1Cl (stereo not drawn) [Example 88] |
| ≤ 10 nM | CC(Oc1ccc2[nH]nc(/C=C/c3ccc(CNCCN4CCOCC4)cc3)c2c1)c1c(Cl)cncc1Cl (stereo not drawn) [Example 89] |
| 50 to 1000 nM | CC(Oc1ccc2[nH]nc(/C=C/c3ccc(CN(C)Cc4ccccc4)cc3)c2c1)c1c(Cl)cncc1Cl (stereo not drawn) [Example 94] |
| 50 to 1000 nM | CC(Oc1ccc2[nH]nc(/C=C/c3ccc(CNc4ccccc4)cc3)c2c1)c1c(Cl)cncc1Cl (stereo not drawn) [Example 99] |
| ≤ 10 nM | CC(Oc1ccc2[nH]nc(/C=C/c3ccc(CN4CCCOCC4)cc3)c2c1)c1c(Cl)cncc1Cl (stereo not drawn) [Example 100] |
| ≤ 10 nM | CC(Oc1ccc2[nH]nc(/C=C/c3ccc(CN4CCN(C(C)C)CC4)cc3)c2c1)c1c(Cl)cncc1Cl (stereo not drawn) [Example 102] |
| ≤ 10 nM | CNC(=O)C1CCN(Cc2ccc(/C=C/c3n[nH]c4ccc(OC(C)c5c(Cl)cncc5Cl)cc34)cc2)CC1 (stereo not drawn) [Example 103] |
| 50 to 1000 nM | CC(Oc1ccc2[nH]nc(/C=C/c3ccc(CN4CCOC[C@@H]4C)cc3)c2c1)c1c(Cl)cncc1Cl (stereo partly drawn) [Example 107] |

The next lines start with the compound.

| Structure (SMILES) | IC50 |
| --- | --- |
| C[C@@H](Oc1ccc2[nH]nc(/C(F)=C/c3ccc(CN4CCOCC4)nc3)c2c1)c1c(Cl)cncc1Cl [Example 4] | 50 to 1000 nM |
| C[C@H](Oc1ccc2[nH]nc(/C(F)=C/c3ccc(CN4CCOCC4)nc3)c2c1)c1c(Cl)cncc1Cl [Example 5] | 50 to 1000 nM |
| CC(Oc1ccc2[nH]nc(/C(F)=C/c3ccc(CN4CCC(CO)CC4)nc3)c2c1)c1c(Cl)cncc1Cl (stereo not drawn) [Example 9] | 10 to 50 nM |
| CC(Oc1ccc2[nH]nc(/C(F)=C/c3ccc(CNC4CCOCC4)nc3)c2c1)c1c(Cl)cncc1Cl (stereo not drawn) [Example 10] | 10 to 50 nM |
| CC(Oc1ccc2[nH]nc(/C(F)=C/c3ccc(CN4CCC(O)C4)nc3)c2c1)c1c(Cl)cncc1Cl (stereo not drawn) [Example 12] | 10 to 50 nM |
| C[C@H](Oc1ccc2[nH]nc(/C=C(\F)c3ccc(CN4CCC(CO)CC4)nc3)c2c1)c1c(Cl)cncc1Cl [Example 22] | 10 to 50 nM |
| C[C@H](Oc1ccc2[nH]nc(/C=C(\F)c3ccc(CN4CCC(O)C4)nc3)c2c1)c1c(Cl)cncc1Cl (stereo partly drawn) [Example 23] | ≤ 10 nM |
| C[C@@H](Oc1ccc2[nH]nc(/C=C(\F)c3ccc(CN4CCN(CCO)CC4)nc3)c2c1)c1c(Cl)cncc1Cl [Example 27] | ≤ 10 nM |
| C[C@@H](Oc1ccc2[nH]nc(/C=C(\F)c3ccc(CN4CCC(O)C4)nc3)c2c1)c1c(Cl)cncc1Cl (stereo partly drawn) [Example 31] | ≤ 10 nM |
| C[C@@H](Oc1ccc2[nH]nc(/C=C(\F)c3ccc(O[C@H]4CCOC4)nc3)c2c1)c1c(Cl)cncc1Cl [Example 37] | 50 to 1000 nM |
| C[C@@H](Oc1ccc2[nH]nc(/C=C(\F)c3ccc(OC4CCNCC4)nc3)c2c1)c1c(Cl)cncc1Cl [Example 43] | ≤ 10 nM |
| CC(Oc1ccc2[nH]nc(/C=C/c3cncc(CN4CCOCC4)c3)c2c1)c1c(Cl)cncc1Cl (stereo not drawn) [Example 50] | ≤ 10 nM |
| CC(Oc1ccc2[nH]nc(/C=C/c3cnc(CN4CCOCC4)nc3)c2c1)c1c(Cl)cncc1Cl (stereo not drawn) [Example 51] | ≤ 10 nM |
| CC(Oc1ccc2[nH]nc(/C=C/c3ncc(CN4CCOCC4)cn3)c2c1)c1c(Cl)cncc1Cl (stereo not drawn) [Example 52] | 50 to 1000 nM |
| Cc1cc(/C=C/c2n[nH]c3ccc(OC(C)c4c(Cl)cncc4Cl)cc23)ccc1CN1CCOCC1 (stereo not drawn) [Example 58] | 50 to 1000 nM |
| CC(Oc1ccc2[nH]nc(/C=C/c3ccc(CN4CCOCC4)cc3C#N)c2c1)c1c(Cl)cncc1Cl (stereo not drawn) [Example 60] | 50 to 1000 nM |
| CC(Oc1ccc2[nH]nc(/C=C/c3cc(N)c(CN4CCOCC4)cc3F)c2c1)c1c(Cl)cncc1Cl (stereo not drawn) [Example 61] | 50 to 1000 nM |
| C[C@@H](Oc1ccc2[nH]nc(/C=C/c3ccc(CN4CCOCC4)nn3)c2c1)c1c(Cl)cncc1Cl [Example 67] | ≤ 10 nM |

| Structure (SMILES) | IC50 |
| --- | --- |
| C[C@@H](Oc1ccc2[nH]nc(/C=C/c3ccc(CNC4CCOCC4)nn3)c2c1)c1c(Cl)cncc1Cl [Example 68] | ≤ 10 nM |
| C[C@@H](Oc1ccc2[nH]nc(/C=C/c3ccc(CN4CCC(O)C4)nn3)c2c1)c1c(Cl)cncc1Cl (stereo partly drawn) [Example 69] | ≤ 10 nM |
| CC(Oc1ccc2[nH]nc(/C=C/c3ccc(N4CCN(C)CC4)nc3)c2c1)c1c(Cl)cncc1Cl (stereo not drawn) [Example 71] | 10 to 50 nM |
| CC(Oc1ccc2[nH]nc(/C=C/c3ccc(CN4CC[C@@H](N(C)C)C4)cc3)c2c1)c1c(Cl)cncc1Cl (stereo partly drawn) [Example 73] | ≤ 10 nM |
| CC(Oc1ccc2[nH]nc(/C=C/c3ccc(CN4CCC(CO)CC4)cc3)c2c1)c1c(Cl)cncc1Cl (stereo not drawn) [Example 74] | ≤ 10 nM |
| CC(Oc1ccc2[nH]nc(/C=C/c3ccc(CNC4CCOCC4)cc3)c2c1)c1c(Cl)cncc1Cl (stereo not drawn) [Example 78] | ≤ 10 nM |
| CC(Oc1ccc2[nH]nc(/C=C/c3ccc(CN(CCN(C)C)Cc4ccccc4)cc3)c2c1)c1c(Cl)cncc1Cl (stereo not drawn) [Example 86] | 50 to 1000 nM |
| CC(Oc1ccc2[nH]nc(/C=C/c3ccc(CNCc4ccccc4)cc3)c2c1)c1c(Cl)cncc1Cl (stereo not drawn) [Example 87] | 50 to 1000 nM |
| CC(Oc1ccc2[nH]nc(/C=C/c3ccc(CN4CCC(Cc5ccccc5)CC4)cc3)c2c1)c1c(Cl)cncc1Cl (stereo not drawn) [Example 90] | 50 to 1000 nM |
| CCN(Cc1ccccc1)Cc1ccc(/C=C/c2n[nH]c3ccc(OC(C)c4c(Cl)cncc4Cl)cc23)cc1 (stereo not drawn) [Example 91] | 50 to 1000 nM |
| CC(Oc1ccc2[nH]nc(/C=C/c3ccc(CN4CCN(C)CC4)cc3)c2c1)c1c(Cl)cncc1Cl (stereo not drawn) [Example 93] | 10 to 50 nM |
| CCN(Cc1ccccc1)Cc1ccc(/C=C/c2n[nH]c3ccc(OC(C)c4c(Cl)cncc4Cl)cc23)cc1 (stereo not drawn) [Example 95] | 50 to 1000 nM |
| CC1CN(Cc2ccc(/C=C/c3n[nH]c4ccc(OC(C)c5c(Cl)cncc5Cl)cc34)cc2)CCN1 (stereo not drawn) [Example 97] | ≤ 10 nM |
| CC(Oc1ccc2[nH]nc(/C=C/c3ccc(CN4CCCC(CO)C4)cc3)c2c1)c1c(Cl)cncc1Cl (stereo not drawn) [Example 101] | ≤ 10 nM |
| CCN(Cc1ccc(/C=C/c2n[nH]c3ccc(OC(C)c4c(Cl)cncc4Cl)cc23)cc1)C1CCCCC1 (stereo not drawn) [Example 104] | 50 to 1000 nM |
| CC(Oc1ccc2[nH]nc(/C=C/c3ccc(CN4CCC(O)C4)cc3)c2c1)c1c(Cl)cncc1Cl (stereo not drawn) [Example 106] | ≤ 10 nM |
| CC1CN(Cc2ccc(/C=C/c3n[nH]c4ccc(OC(C)c5c(Cl)cncc5Cl)cc34)cc2)CC(C)O1 (stereo not drawn) [Example 108] | 50 to 1000 nM |
| CC(=O)N1CCN(Cc2ccc(/C=C/c3n[nH]c4ccc(OC(C)c5c(Cl)cncc5Cl)cc34)cc2)CC1 (stereo not drawn) [Example 109] | ≤ 10 nM |
